Measured values from patent US5677326A, “Indoline compound and 5-HT3 receptor antagonist containing the same as active ingredient” (Tokyo Tanabe Company Limited, priority 1993, dated 1997).

How the values were obtained:
[1] = molecular target: T1, Intestinal 5-HT3 receptor (Cavia porcellus, UniProt O70212); assay: Intestinal 5-HT3 receptor antagonism (isolated distal colon, 2-methylserotonin-induced contraction); assay type: cell-based, Hartley guinea pigs; conditions: M (molar concentration of antagonist), isolated distal colon, 2-methylserotonin contraction
T1 sequence (O70212 24-490 limits assumed): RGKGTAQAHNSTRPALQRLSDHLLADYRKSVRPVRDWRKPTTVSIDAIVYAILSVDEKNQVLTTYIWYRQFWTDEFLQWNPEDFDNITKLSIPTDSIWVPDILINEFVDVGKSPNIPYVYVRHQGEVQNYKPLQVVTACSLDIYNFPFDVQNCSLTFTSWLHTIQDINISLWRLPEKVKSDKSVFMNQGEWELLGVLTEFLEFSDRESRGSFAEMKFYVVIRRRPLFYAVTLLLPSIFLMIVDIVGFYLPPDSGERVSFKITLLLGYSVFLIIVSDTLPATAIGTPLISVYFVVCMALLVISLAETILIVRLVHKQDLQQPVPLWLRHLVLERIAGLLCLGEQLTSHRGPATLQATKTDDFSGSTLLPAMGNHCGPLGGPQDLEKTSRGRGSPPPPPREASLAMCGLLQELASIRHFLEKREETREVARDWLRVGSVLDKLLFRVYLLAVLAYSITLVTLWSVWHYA
Description: The test was conducted following the method of Miyata, et al. (The Journal of Pharmacology and Experimental Therapeutics Vol.259, No:1, 15 (1991)).
Male Hartley guinea pigs with a body weight of 300-400 g were bled to death, the distal colon (3-10 cm from the anus) was isolated and suspended in a Magnus tube filled with Krebs solution aerated with a mixed gas (95% O2, 5% CO2), and subjected to a tensile load of 1 g. After constant contraction by cumulative addition of 2-methylserotonin (10^-6 -10^-4 M) was obtained, the test agent was added and the pA2 value of the test agent was calculated based on its inhibiting action on the initial value.
The value (pA2 value) is defined as the negative logarithm (-logM) of the molar concentration (M) of the antagonist required to reduce the effect of serotonin at a concentration of 2 times the 2-methylserotonin concentration (EC50) necessary to induce half of the maximum contraction reaction, to an effect induced by an EC50 of serotonin.

[2] = tested on: 5-HT3 receptors in the upper intestine; assay: Antagonism against 5-HT-induced intestinal secretion (jejunal loop); assay type: in vivo, wister rats; conditions: caudal vein, 15 min before serotonin
Description: Antagonism against 5-HT-induced intestinal secretion:
Male wister rats (8-11 weeks old) were anesthetized with urethane, and the abdomen was opened a polyethylene catheter was placed in the jejunum 5 cm distal to the duodenojejunal flexure and fixed by ligation. The second ligation was made at a distal point of 20 cm to create a jejunal loop. Two ml of physiological saline was injected into this loop and initiated continuous injection of physiological saline (0.1 ml/min) or 5-HT (3 μg/0.1 ml/kg/min, serotonin treated group) into the mesenteric artery through the mesenteric artery gastric branch, and after 30 minutes the jejunal loop was isolated, the residual fluid amount was measured, and the net fluid transfer per gram of tissue weight was calculated. The net fluid transfer was expressed as the fluid amount (weight) change in 30 minutes per jejunal tissue weight (g/30 min/g). A "+" was assigned when the fluid amount increased compared with 2 ml of physiological saline injected into the loop, and "-" when it decreased

[3] = tested on: restrained stress-induced diarrhea; assay: Inhibiting effect on restrained stress-induced diarrhea (oral administration); assay type: in vivo, Wistar rats; conditions: 1 hour before stress
Description: Inhibiting effect on restrained stress-induced diarrhea (oral administration): This test was conducted following the method of Miyata, et al. […] Nine-week-old male Wistar rats fasted overnight were placed in a stress cage and their feces produced in 5 hours were observed. Of 15 rats, 14 developed diarrhea. The inhibiting effect on diarrhea was measured by oral administration of the test compounds one hour prior to placement in the stress cage.

[4] = tested on: restraint stress-induced diarrhea; assay: Inhibiting effect on restraint stress-induced diarrhea (intraabdominal administration); assay type: in vivo, Wistar rats; conditions: 30 μg/kg, 30 min before stress
Description: Inhibiting effect on restraint stress-induced diarrhea (intraabdominal administration): This test was conducted in the same manner as Test 3. Nine- to ten-week-oldmale Wistar rats fasted overnight were placed in a stress case and their feces produced in 5 hours were observed. Of 15 rats, 14 developed diarrhea. The inhibiting effect on diarrhea was measured by intraabdominal administration of a test compound 30 minutes prior to placement in the stress cage.

[5] = tested on: duodenal extension reflex; assay: Inhibiting effect on duodenal extension reflex; assay type: in vivo, Wistar rats; conditions: intravenous
From the text: Inhibiting effect on duodenal extension reflex: Unfasted male Wistar rats with a body weight of 300-390 g were opened at the abdomen under urethane anesthesia, and ligated at 2 locations, the gastric pyloric region and 3-4 cm directly under it, to create a duodenal loop. […] The beaker was raised at once to create a internal loop pressure of 75 cm H2, and the depressor reflex and effect of the test agent administration were observed. […] The test agent was then administrated intravenously, and at 5, 15 and 25 minutes after administration an extension stimulus was applied, the depressor reflex was observed, and the differences were expressed as percentages with respect to the initial value, to give the inhibition rates.

[6] = molecular target: T2, 5-HT3 receptors in the heart (Rattus norvegicus, UniProt P35563); assay: Antagonism against Von Bezold-Jarisch reflex (BJ reflex); assay type: in vivo, SD rats; conditions: iv, 5 min before serotonin 30 μg/kg, read-out: ID50 (the source's name)
T2 construct: from tissue; host or cells: living anesthetized male SD rats (in vivo)
T2 sequence (P35563 24-483): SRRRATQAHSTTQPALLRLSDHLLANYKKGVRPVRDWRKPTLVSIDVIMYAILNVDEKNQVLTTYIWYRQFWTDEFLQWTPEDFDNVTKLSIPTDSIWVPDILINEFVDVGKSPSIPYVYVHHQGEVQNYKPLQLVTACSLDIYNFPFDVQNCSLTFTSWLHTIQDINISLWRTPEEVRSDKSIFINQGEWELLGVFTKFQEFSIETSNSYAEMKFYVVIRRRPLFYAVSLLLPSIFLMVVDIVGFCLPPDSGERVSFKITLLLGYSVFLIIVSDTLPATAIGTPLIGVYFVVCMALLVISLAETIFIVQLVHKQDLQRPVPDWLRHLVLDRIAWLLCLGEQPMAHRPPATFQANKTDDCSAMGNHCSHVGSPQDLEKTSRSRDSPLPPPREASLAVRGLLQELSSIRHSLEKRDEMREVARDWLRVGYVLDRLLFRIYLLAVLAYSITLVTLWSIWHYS
Description: Antagonism against Von Bezold-Jarisch reflex (BJ reflex):
The pulse was determined by measuring the electrocardiogram R waves (secondary induction) with an instantaneous pulse rate meter.

[7] = tested on: cisplatin-induced vomiting; assay: Inhibiting effect on cisplatin-induced vomiting; assay type: in vivo, ferrets; conditions: oral, 1 hour before cisplatin; for No. of retching / No. of vomiting animals/No. of animals used / No. of vomitings: 6 hours
From the text: Inhibiting effect on cisplatin-induced vomiting:
Vomiting was induced in ferrets by administration of cisplatin. The inhibiting effect on this vomiting was observed. […] The test agents were orally administered one hour prior to cisplatin administration. […]

[8] = tested on: gastric emptying; assay: Accelerating effect on gastric emptying (cisplatin-reduced); assay type: in vivo, SD rats; conditions: oral, 30 min before cisplatin 10 mg/kg
Description: Accelerating effect on gastric emptying
Seven-week-old male SD rats which had been fasted for 24 hours were used. The effect on gastric emptying was studied in rats with reduced gastric emptying due to cisplatin. The rats were intragastrically administered the test feed (1.5% aqueous CMC solution containing 50 mg/100 ml phenol red) at 1.5 ml/rat, and after 15 minutes the stomachs were dissected, the residual amount of phenol red in the stomach was measured, in order to determine the gastric emptying in normal animals. A cisplatin-induced reduction in gastric emptying was measured by intraabdominal administration of cisplatin (10 mg/kg) 30 minutes prior to supplying the test feed. The test compound was also administered orally 30 minutes prior to the cisplatin administration to study the accelerating effect of the test compound on gastric emptying.

[9] = tested on: stress-related diarrhea; conditions: animal models; J. Pharmacol. Exp. Ther. 261, 297 (1992); cited from earlier work
[10] = tested on: vomiting; conditions: The Japanese Journal of Pharmacology 57, 387-395 (1991); cited from earlier work

Cl.Cn1cc(C(=O)[C@@H]2CCc3nc[nH]c3C2)c2ccccc21 [YM-060, (R)-(-)-5-[(1-methylindol-3-yl)carbonyl]-4,5,6,7-tetrahydrobenzimidazole hydrochloride, reference compound]
Kb [1]: 4.5 nM
net fluid transfer in jejunal loop ([2]; 1.0 μg/kg): -0.49 ± 0.06 g/30 min/g tissue weight
net fluid transfer in jejunal loop ([2]; 10 μg/kg): -0.74 ± 0.09 g/30 min/g tissue weight
Inhibition rate ([3]; 30 μg/kg): 60%
No. of animals with diarrhea/No. of animals used ([3]; 30 μg/kg): 4/10
Inhibition rate ([3]; 100 μg/kg): 75%
No. of animals with diarrhea/No. of animals used ([3]; 100 μg/kg): 2/8
Inhibition rate [4]: 50%
No. of animals with diarrhea/No. of animals used [4]: 7/14
Inhibition rate, 5-min value ([5]; 1 μg/kg): -27.9%
Inhibition rate, 15-min value ([5]; 1 μg/kg): -30.8%
Inhibition rate, 25-min value ([5]; 1 μg/kg): -14.8%
Inhibition rate, 5-min value ([5]; 10 μg/kg): 16.3%
Inhibition rate, 15-min value ([5]; 10 μg/kg): 6.3%
Inhibition rate, 25-min value ([5]; 10 μg/kg): 7.9%
ED50 [6]: 8.6e-05 µmol/kg
Latency* (time to initial retching) ([7]; 0.3 μg): 127.0 min
Latency** (time to initial vomiting) ([7]; 0.3 μg): 134.0 min
No. of retching ([7]; 0.3 μg): 126.0
No. of vomiting animals/No. of animals used ([7]; 0.3 μg): 2/2
No. of vomitings ([7]; 0.3 μg): 6.5
Latency* (time to initial retching) ([7]; 1.0 μg): > 272.2 min
Latency** (time to initial vomiting) ([7]; 1.0 μg): > 303.0 min
No. of retching ([7]; 1.0 μg): 41.6
No. of vomiting animals/No. of animals used ([7]; 1.0 μg): 3/5
No. of vomitings ([7]; 1.0 μg): 1.2
Gastric evacuation ([8]; 0.3 μg/kg): 51.8%
Gastric evacuation ([8]; 1.0 μg/kg): 74.2%
suppression of stress-related diarrhea (in words) [9]: suppress stress-related diarrhea in animal models, with the effect of YM-060 being the strongest
antiemetic effect (in words) [10]: powerful antiemetic effect
